Test results: patent publication US6455516B1, “Method and compounds for use in the treatment of steroid induced states of the central nervous system” (priority 1998, dated 2002)
Entries after “also recorded” stand apart in the source; their conditions may differ.

Legend:
[1] = Steroids tested by the inventors as agonist, blocker or antagonist to the sedative steroids (method not given)
[2] = test system: slices from hippocampal CA1 region; assay: Hippocampus slice in vitro model: induced population spike (POPSP) over the synapse in area CA1; assay type: cell-based, rat; details: for Blocking of the effect of 3alpha-hydroxy-5alpha-pregnan-20-one on the signal/POPSP / Blocking of the effect of 3alpha-hydroxy-5beta-pregnan-20-one on the signal/POPSP: given simultaneously, equimolar dose in the nM range; for Effect on the signal transmitted over the synapse / amplitude of the POPSP: steroid alone
Description: In another preliminary study, the hippocampus slice model in the female rat of the luteal phase was used. This corresponds to the phase in humans when most of CNS effects are noticed in women with epilepsy and premenstrual syndrome.
In the hippocampus slice in vitro model the effect of steroids on an electrical signal over the synapse in the area CA1 was investigated. The stimulation is on one side of the synapse and a measurement of the response is made on the other side. A small droplet containing the steroid can be placed on top of the synapse and thus influence the synaptic transmission. Secondly a steroid can also be dissolved in the nutrient fluid perfusing the hippocampous slice. The steroid in the perfusion will influence the whole slice including the synapse under investigation.

Sprague-Dawley rats [3] = assay: EEG-threshold method for deep anaesthesia ("silent second"), continuous intravenous infusion; assay type: in vivo, rat; details: for Intercept of regression line (anaesthetic steroid dosage needed for SS at zero 3beta-hydroxy-5alpha-pregnan-20-one): FIG. 1 / FIG. 2; for Optimal dose rate (gives the lowest threshold dose): rats
Description: The present invention is based on experiments in vivo, performed to confirm the blocking effect of 3beta-hydroxy-5alpha-pregnan-20-one on 3alpha-hydroxy-5alpha-pregnan-20-one in a preliminary study. 3alpha-hydroxy-5alpha-pregnan-20-one dissolved in 20% cyclodextrin was given to male Sprague-Dawley rats in an i.v. infusion dose rate of close to 3.0 mg/kg/min. This is the optimal dose rate for 3alpha-hydroxy-5alpha-pregnan-20-one. 3alpha-hydroxy-5alpha-pregnan-20-one and 3beta-hydroxy-5alpha-pregnan-20-one were dissolved, 50/50%, in water solution containing cyclodextrin. The control solution only contained 3alpha-hydroxy-5alpha-pregnan-20-one. The amount of 3alpha-hydroxy-5alpha-pregnan-20-one needed to obtain silent second, the anaesthesia criteria, was 21% higher with the combined solution compared to 3alpha-hydroxy-5alpha-pregnan-20-one alone, showing an interaction between 3alpha-hydroxy-5alpha-pregnan-20-one and 3beta-hydroxy-5alpha-pregnan-20-one in vivo. There was no overlap between the effect of the combined solution and control solution of 3alpha-hydroxy-5alpha-pregnan-20-one.
In further studies, performed after the priority date, the present invention was tested in in vivo experiments in which the blocking effect of 3beta-hydroxy-5alpha-pregnan-20-one was assessed by investigating the dosage of 3alpha-hydroxy-5alpha-pregnan-20-one and 3alpha-hydroxy-5beta-pregnan-20-one needed to induce a deep anaesthesia in the presence of increasing amounts of 3beta-hydroxy-5alpha-pregnan-20-one. An EEG-threshold method for deep anaesthesia was used. The method is developed to determine the sensitivity in the central nervous system (CNS) to the depressant drugs, mainly intravenous anaesthetic agents. Drugs are administered into the tail vein by continuous intravenous infusion while an Electro-Encephalo-Gram (EEG) is recorded. The infusion was immediately stopped and infusion time recorded, when the first burst of EEG suppression for one second or more is noted, the threshold criterion for a deep anaethesia, the “silent second” (SS). The appearance of SS is considered as a deeper anaesthesia state than the loss of righting reflex. The threshold dose (mg/kg) is calculated by multiplying the time to obtain SS with the dose rate (mg/kg/min). The threshold doses of the tested drug indicates its relative anaesthetic potency. The threshold doses are also related to CNS excitability. An increase or decrease in CNS excitability can be measured by a change in threshold doses of anesthetics. The dose rates which give the lowest threshold dose is considered as the optimal dose rate. The optimal dose rate and anaesthetic threshold dosage for 3alpha-hydroxy-5alpha-pregnan-20-one and […] at several times and the optimal dose rate is close to 3.0 mg/kg/min for both 3alpha-hydroxy-5alpha-pregnan-20-one and 3alpha-hydroxy-5beta-pregnan-20-one. The anaesthetic threshold dosage is for 3alpha-hydroxy-5alpha-pregnan-20-one between 6.5 to 8.0 mg/kg and for 3alpha-hydroxy-5beta-pregnan-20-one between 9 to 11 mg/kg depending on the age of the rats and the solvent used.
3alpha-hydroxy-5alpha-pregnan-20-one and […] dissolved in 20% cyclodextrin were given to Sprague-Dawley rats in an intravenous infusion at the optimal dose rate. 3beta-hydroxy-5alpha-pregnan-20-one was also dissolved in a 20% cyclodextrin solution and given simultaneously in a dosage 100%, 123% and 143% of the 3alpha-hydroxy-5alpha-pregnan-20-one dosage (n=11) and 70%, 100%, 123% and 143% of the 3alpha-hydroxy-5beta-pregnan-20-one dosage (n=16). […] The correlation between the dosage 3beta-hydroxy-5alpha-pregnan-20-one given and the dosage of 3alpha-hydroxy-5alpha-pregnan-20-one and 3alpha-hydroxy-5beta-pregnan-20-one needed to obtain the criterion of SS is highly significant (FIG. 1 and FIG. 2).

Sprague-Dawley rats [4] = details: a result found by several groups and described in earlier reports; cited from earlier work

## 3beta-hydroxy-pregnenolone
[1]
  Effect as agonist, blocker or antagonist to the sedative steroids: no effect either as an agonist or blocker or antagonist
[2]; local application
  Blocking of the effect of 3alpha-hydroxy-5alpha-pregnan-20-one on the signal/POPSP: no blocking effect
  Blocking of the effect of 3alpha-hydroxy-5beta-pregnan-20-one on the signal/POPSP: no blocking effect

## CC(=O)[C@H]1CC[C@H]2[C@@H]3CC[C@H]4C[C@H](O)CC[C@]4(C)[C@H]3CC[C@]12C [3alpha-hydroxy-5alpha-pregnan-20-one, reference compound]
[2]; local application, FIG. 3
  Reduction of the amplitude of the induced population spike: 45%
[2]; local application
  Effect on the signal transmitted over the synapse / amplitude of the POPSP: inhibition of the signal transmitted over the synapse
Sprague-Dawley rats [3]
  Intercept of regression line (anaesthetic steroid dosage needed for SS at zero 3beta-hydroxy-5alpha-pregnan-20-one): 6.9 mg/kg
Sprague-Dawley rats [3]; i.v. infusion
  Optimal dose rate (gives the lowest threshold dose): ~3.0 mg/kg/min

## CC(=O)[C@H]1CC[C@H]2[C@@H]3CC[C@@H]4C[C@H](O)CC[C@]4(C)[C@H]3CC[C@]12C [3alpha-hydroxy-5beta-pregnan-20-one, reference compound]
[2]; local application
  Effect on the signal transmitted over the synapse / amplitude of the POPSP: inhibition of the signal transmitted over the synapse; also recorded: inhibits the amplitude of the POPSP
Sprague-Dawley rats [3]
  Intercept of regression line (anaesthetic steroid dosage needed for SS at zero 3beta-hydroxy-5alpha-pregnan-20-one): 9.1 mg/kg
Sprague-Dawley rats [3]; i.v. infusion
  Optimal dose rate (gives the lowest threshold dose): ~3.0 mg/kg/min

## CC(=O)[C@H]1CC[C@H]2[C@@H]3CC[C@H]4C[C@@H](O)CC[C@]4(C)[C@H]3CC[C@]12C [3beta-hydroxy-5alpha-pregnan-20-one]
[2]; alone, up to micromolar range, not different from vehicle
  Effect by itself on signal transmission over the synapse: no effect on signal transmission; also recorded: no effect by itself
[2]; local application
  Blocking of the effect of 3alpha-hydroxy-5alpha-pregnan-20-one on the signal/POPSP: can be blocked; also recorded: totally inhibited
  Blocking of the effect of 3alpha-hydroxy-5beta-pregnan-20-one on the signal/POPSP: can be blocked; also recorded: can inhibit the effect
[2]; perfusion of whole slice
  Blocking of the effect of 3alpha-hydroxy-5alpha-pregnan-20-one when perfused to the whole hippocampus slice: same blocking effect
[2]; together with Muscimol, FIG. 5
  Interaction with Muscimol (an agonist to GABA) on the GABA-A receptor: does not interact with Muscimol
Sprague-Dawley rats [3]; FIG. 1, p<0.001, df=9
  Correlation coefficient r: 3alpha-hydroxy-5alpha-pregnan-20-one dosage needed for SS vs 3beta-hydroxy-5alpha-pregnan-20-one dosage: 0.90
Sprague-Dawley rats [3]; FIG. 1, slope p<0.001 different from 0
  Slope of regression line: 3alpha-hydroxy-5alpha-pregnan-20-one dosage needed for SS vs 3beta-hydroxy-5alpha-pregnan-20-one dosage: 0.43
Sprague-Dawley rats [3]; FIG. 2, P<0.001, df=14
  Correlation coefficient r: 3alpha-hydroxy-5beta-pregnan-20-one dosage needed for SS vs 3beta-hydroxy-5alpha-pregnan-20-one dosage: 0.78
Sprague-Dawley rats [3]; FIG. 2, slope p<0.001 different from 0
  Slope of regression line: 3alpha-hydroxy-5beta-pregnan-20-one dosage needed for SS vs 3beta-hydroxy-5alpha-pregnan-20-one dosage: 0.46
Sprague-Dawley rats [3]; given simultaneously i.v. at 70%, 100%, 123% and 143% of the 3alpha-hydroxy-5beta-pregnan-20-one dosage, dose dependent
  Effect on the anaesthetic effect of 3alpha-hydroxy-5beta-pregnan-20-one in vivo: can block the effect; also recorded: decreased the anaesthetic potency
Sprague-Dawley rats [3]; given simultaneously i.v. at 100%, 123% and 143% of the 3alpha-hydroxy-5alpha-pregnan-20-one dosage, dose dependent
  Effect on the anaesthetic/CNS depressing effect of 3alpha-hydroxy-5alpha-pregnan-20-one in vivo: can block the effect; also recorded: decreased the anaesthetic potency
Sprague-Dawley rats [3]; preliminary study, 50/50% with 3alpha-hydroxy-5alpha-pregnan-20-one in cyclodextrin solution, i.v. infusion, male Sprague-Dawley rats
  Amount of 3alpha-hydroxy-5alpha-pregnan-20-one needed to obtain silent second, higher with combined solution compared to 3alpha-hydroxy-5alpha-pregnan-20-one alone: 21%
Sprague-Dawley rats [4]
  Effect by itself on CNS activities: no effect on CNS activities

## CC(=O)[C@H]1CC[C@H]2[C@@H]3CC[C@@H]4C[C@@H](O)CC[C@]4(C)[C@H]3CC[C@]12C [3beta-hydroxy-5beta-pregnan-20-one]
[1]
  Effect as agonist, blocker or antagonist to the sedative steroids: no effect either as a blocker or as an antagonist
[2]; local application
  Blocking of the effect of 3alpha-hydroxy-5alpha-pregnan-20-one on the signal/POPSP: no blocking effect
  Blocking of the effect of 3alpha-hydroxy-5beta-pregnan-20-one on the signal/POPSP: no blocking effect

## CC(=O)C1CCC2C3CC=C4CC(OS(=O)(=O)O)CCC4(C)C3CCC12C (stereo not shown) [Pregnenolone sulphate]
[2]; local application
  Blocking of the effect of 3alpha-hydroxy-5beta-pregnan-20-one on the signal/POPSP: could neither block
[2]; high micromolar concentrations
  Own effect on the signal in high micromolar concentrations: excitatory
